From the NIST ThermoML archive (doi:10.1016/j.jct.2016.10.005)
Numbers after ± are expanded uncertainties.

Assay: excess molar enthalpy (molar enthalpy of mixing); xn = mol fraction of the nth substance listed
Conditions: 100 kPa, Liquid, Flow calorimetry

C1CCCCC1 [cyclohexane] + CCCO
excess molar enthalpy [kcal/mol]
Conditions | 298.15 K | 313.15 K
x1 = 0.0503 | 0.0217 ± 0.00239 | 0.0256 ± 0.00263
x1 = 0.1005 | 0.0413 ± 0.00263 | 0.0497 ± 0.00263
x1 = 0.1499 | 0.059 ± 0.00263 | 0.0717 ± 0.00263
x1 = 0.2005 | 0.0755 ± 0.00263 | 0.0927 ± 0.00263
x1 = 0.2498 | – | 0.112 ± 0.00263
x1 = 0.2499 | 0.0903 ± 0.00263 | –
x1 = 0.3004 | – | 0.129 ± 0.00263
x1 = 0.3005 | 0.104 ± 0.00263 | –
x1 = 0.3502 | – | 0.145 ± 0.00263
x1 = 0.3503 | 0.116 ± 0.00263 | –
x1 = 0.4001 | – | 0.159 ± 0.00287
x1 = 0.4003 | 0.127 ± 0.00263 | –
x1 = 0.45 | – | 0.171 ± 0.00287
x1 = 0.4501 | 0.136 ± 0.00263 | –
x1 = 0.4997 | – | 0.181 ± 0.00287
x1 = 0.4998 | 0.143 ± 0.00263 | –
x1 = 0.5502 | – | 0.189 ± 0.00287
x1 = 0.5504 | 0.149 ± 0.00263 | –
x1 = 0.6006 | 0.152 ± 0.00263 | 0.194 ± 0.00287
x1 = 0.6503 | 0.153 ± 0.00263 | 0.196 ± 0.00287
x1 = 0.6994 | – | 0.194 ± 0.00287
x1 = 0.6995 | 0.152 ± 0.00263 | –
x1 = 0.7503 | – | 0.189 ± 0.00287
x1 = 0.8005 | 0.139 ± 0.00263 | 0.179 ± 0.00287
x1 = 0.8497 | 0.127 ± 0.00263 | 0.165 ± 0.00287
x1 = 0.9005 | 0.109 ± 0.00263 | 0.143 ± 0.00287
x1 = 0.9502 | 0.0827 ± 0.00263 | 0.11 ± 0.00287

CC1CCCCC1 [methylcyclohexane] + CCCO
excess molar enthalpy [kcal/mol]
Conditions | 298.15 K | 313.15 K
x1 = 0.0498 | 0.0179 ± 0.00239 | 0.0239 ± 0.00263
x1 = 0.1005 | 0.0344 ± 0.00239 | 0.0466 ± 0.00263
x1 = 0.1504 | 0.0495 ± 0.00239 | –
x1 = 0.1505 | – | 0.0676 ± 0.00263
x1 = 0.2 | 0.0633 ± 0.00263 | 0.0872 ± 0.00263
x1 = 0.2504 | 0.0767 ± 0.00263 | 0.106 ± 0.00263
x1 = 0.3005 | 0.0889 ± 0.00263 | 0.123 ± 0.00263
x1 = 0.3501 | 0.1 ± 0.00263 | –
x1 = 0.3502 | – | 0.139 ± 0.00263
x1 = 0.3998 | 0.11 ± 0.00263 | 0.153 ± 0.00287
x1 = 0.4503 | 0.12 ± 0.00263 | 0.166 ± 0.00287
x1 = 0.5004 | 0.127 ± 0.00263 | –
x1 = 0.5005 | – | 0.177 ± 0.00287
x1 = 0.55 | 0.134 ± 0.00263 | 0.187 ± 0.00287
x1 = 0.5998 | 0.138 ± 0.00263 | –
x1 = 0.5999 | – | 0.191 ± 0.00287
x1 = 0.6497 | 0.14 ± 0.00263 | 0.194 ± 0.00287
x1 = 0.6995 | 0.14 ± 0.00263 | 0.193 ± 0.00287
x1 = 0.7505 | 0.137 ± 0.00263 | 0.189 ± 0.00287
x1 = 0.7996 | 0.131 ± 0.00263 | 0.181 ± 0.00287
x1 = 0.8495 | 0.121 ± 0.00263 | 0.168 ± 0.00287
x1 = 0.9002 | 0.107 ± 0.00263 | 0.148 ± 0.00287
x1 = 0.9499 | – | 0.116 ± 0.00287
